Results as given in the Kinase Knowledgebase extract (Sharma et al. 2016).

Tests used:
PIK3CB (Human) = PIK3CB (Human) (UniProt P42338); assay: Enzyme Assay
PIK3CD (Human) [1] = target: PIK3CD (Human) (UniProt O00329); assay: Enzyme Assay
PIK3CG (human) = PIK3CG (human) (UniProt P48736); assay: Enzyme Assay
PIK3CD (Human) [2] = target: PIK3CD (Human) (UniProt O00329); assay: Cell-Based Assay; conditions: raji

Chain of PIK3CD (Human) (O00329 whole entry, looked up): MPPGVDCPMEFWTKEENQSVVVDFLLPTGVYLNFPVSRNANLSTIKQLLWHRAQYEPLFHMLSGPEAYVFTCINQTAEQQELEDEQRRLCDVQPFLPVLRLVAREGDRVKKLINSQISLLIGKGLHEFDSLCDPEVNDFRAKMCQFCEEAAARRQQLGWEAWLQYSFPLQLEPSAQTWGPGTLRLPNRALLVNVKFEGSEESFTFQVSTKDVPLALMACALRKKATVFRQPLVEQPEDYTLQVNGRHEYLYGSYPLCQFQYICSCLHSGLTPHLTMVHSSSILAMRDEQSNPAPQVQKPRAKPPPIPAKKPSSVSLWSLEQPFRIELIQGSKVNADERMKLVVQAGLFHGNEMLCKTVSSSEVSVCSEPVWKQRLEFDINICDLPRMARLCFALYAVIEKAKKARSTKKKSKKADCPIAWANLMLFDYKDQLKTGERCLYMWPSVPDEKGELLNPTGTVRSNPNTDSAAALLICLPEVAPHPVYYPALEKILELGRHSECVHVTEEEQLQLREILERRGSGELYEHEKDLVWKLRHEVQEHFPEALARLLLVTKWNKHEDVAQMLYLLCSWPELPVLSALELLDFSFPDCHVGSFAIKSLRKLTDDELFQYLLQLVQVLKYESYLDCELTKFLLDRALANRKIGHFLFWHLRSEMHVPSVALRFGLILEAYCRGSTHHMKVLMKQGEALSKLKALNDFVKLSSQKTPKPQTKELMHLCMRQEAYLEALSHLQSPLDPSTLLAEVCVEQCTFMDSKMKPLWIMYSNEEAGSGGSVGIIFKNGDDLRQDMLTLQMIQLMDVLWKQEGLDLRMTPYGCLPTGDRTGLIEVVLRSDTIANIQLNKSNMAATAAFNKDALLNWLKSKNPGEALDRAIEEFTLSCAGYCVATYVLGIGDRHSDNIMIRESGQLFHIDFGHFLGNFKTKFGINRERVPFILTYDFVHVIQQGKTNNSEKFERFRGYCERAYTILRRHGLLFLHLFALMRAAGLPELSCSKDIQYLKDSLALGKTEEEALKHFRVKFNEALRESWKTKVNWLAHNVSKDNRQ
Chain of PIK3CB (Human) (P42338 whole entry, looked up): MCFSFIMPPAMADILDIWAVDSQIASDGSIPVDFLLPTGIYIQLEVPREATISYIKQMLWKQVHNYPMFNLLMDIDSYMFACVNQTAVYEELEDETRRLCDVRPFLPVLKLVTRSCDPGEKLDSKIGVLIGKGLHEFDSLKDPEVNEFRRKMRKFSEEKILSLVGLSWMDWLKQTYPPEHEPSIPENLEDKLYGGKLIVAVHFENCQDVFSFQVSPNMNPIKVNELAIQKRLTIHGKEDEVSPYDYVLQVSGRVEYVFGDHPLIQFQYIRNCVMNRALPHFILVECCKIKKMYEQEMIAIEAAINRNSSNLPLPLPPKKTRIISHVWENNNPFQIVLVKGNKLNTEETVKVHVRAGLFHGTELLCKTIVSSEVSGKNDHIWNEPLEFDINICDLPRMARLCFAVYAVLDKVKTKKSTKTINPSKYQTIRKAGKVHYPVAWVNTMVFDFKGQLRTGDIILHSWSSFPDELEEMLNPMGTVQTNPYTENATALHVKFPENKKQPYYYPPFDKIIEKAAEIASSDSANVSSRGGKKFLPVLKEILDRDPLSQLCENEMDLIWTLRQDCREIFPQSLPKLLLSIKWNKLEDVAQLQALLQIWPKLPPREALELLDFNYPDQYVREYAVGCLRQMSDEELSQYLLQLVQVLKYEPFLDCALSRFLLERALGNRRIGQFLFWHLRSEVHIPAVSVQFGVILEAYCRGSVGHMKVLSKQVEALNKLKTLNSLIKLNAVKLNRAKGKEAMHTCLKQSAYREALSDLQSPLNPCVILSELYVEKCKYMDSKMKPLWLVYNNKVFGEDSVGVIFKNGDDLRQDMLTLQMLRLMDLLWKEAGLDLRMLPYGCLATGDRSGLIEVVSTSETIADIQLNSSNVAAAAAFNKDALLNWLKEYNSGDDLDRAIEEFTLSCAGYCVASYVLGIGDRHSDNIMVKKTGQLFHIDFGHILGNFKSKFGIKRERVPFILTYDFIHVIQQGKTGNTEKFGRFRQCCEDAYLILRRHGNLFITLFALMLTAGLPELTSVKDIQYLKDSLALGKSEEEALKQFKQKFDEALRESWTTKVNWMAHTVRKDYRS
Chain of PIK3CG (human) (P48736 whole entry, looked up): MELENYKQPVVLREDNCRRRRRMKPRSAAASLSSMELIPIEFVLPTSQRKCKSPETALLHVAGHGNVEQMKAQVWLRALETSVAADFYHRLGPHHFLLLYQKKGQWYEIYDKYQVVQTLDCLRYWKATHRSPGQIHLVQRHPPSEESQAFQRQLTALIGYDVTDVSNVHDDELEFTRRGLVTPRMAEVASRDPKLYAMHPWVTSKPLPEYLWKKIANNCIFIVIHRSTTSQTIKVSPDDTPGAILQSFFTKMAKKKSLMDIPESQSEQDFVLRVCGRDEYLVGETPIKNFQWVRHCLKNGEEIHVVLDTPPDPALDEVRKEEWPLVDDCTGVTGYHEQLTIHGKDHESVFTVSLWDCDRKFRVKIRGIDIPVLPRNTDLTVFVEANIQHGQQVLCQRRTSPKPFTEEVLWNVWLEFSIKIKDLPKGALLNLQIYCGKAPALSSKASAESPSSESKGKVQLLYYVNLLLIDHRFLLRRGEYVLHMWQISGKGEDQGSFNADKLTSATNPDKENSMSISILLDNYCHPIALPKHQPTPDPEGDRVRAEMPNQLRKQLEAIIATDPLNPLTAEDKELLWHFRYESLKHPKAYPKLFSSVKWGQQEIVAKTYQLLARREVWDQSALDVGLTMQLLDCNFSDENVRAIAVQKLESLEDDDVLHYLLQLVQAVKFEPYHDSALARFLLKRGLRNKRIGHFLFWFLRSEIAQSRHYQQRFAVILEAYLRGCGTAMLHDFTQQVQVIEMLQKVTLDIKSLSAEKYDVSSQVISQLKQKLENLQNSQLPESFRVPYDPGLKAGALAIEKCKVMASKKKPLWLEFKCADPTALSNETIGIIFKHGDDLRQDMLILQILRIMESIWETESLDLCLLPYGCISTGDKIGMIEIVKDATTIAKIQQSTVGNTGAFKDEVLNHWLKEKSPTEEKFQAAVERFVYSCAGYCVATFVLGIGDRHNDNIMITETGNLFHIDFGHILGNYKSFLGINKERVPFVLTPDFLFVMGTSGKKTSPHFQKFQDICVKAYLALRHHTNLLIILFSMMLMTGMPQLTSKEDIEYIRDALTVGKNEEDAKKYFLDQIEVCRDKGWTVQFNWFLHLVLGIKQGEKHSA

| Compound | IC50 (PIK3CB (Human)) [µM] | IC50 (PIK3CD (Human) [1]) [µM] | IC50 (PIK3CG (human)) [µM] | IC50 (PIK3CD (Human) [2]) [µM] |
| --- | --- | --- | --- | --- |
| C[C@H](NC(=O)c1c(N)nn2cccnc12)c1cc2cccc(C#Cc3cncn3C)c2c(=O)n1C1CC1 | 1 to 5 | 5 to 10 | 1 to 5 | 0.1 to 0.5 |
| Cc1nc(C)c(C#Cc2cccc3cc([C@H](C)NC(=O)c4c(N)nn5cccnc45)n(-c4ccccc4)c(=O)c23)s1 | 5 to 10 | 5 to 10 | 0.5 to 1 | 1 to 10 |
| C[C@H](NC(=O)c1c(N)nn2cccnc12)c1cc2cccc(C#CCN3CCCC3=O)c2c(=O)n1-c1ccccc1 | 1 to 5 | 0.001 to 0.5 | 0.001 to 0.1 | 0.001 to 0.1 |
| COC(C)C#Cc1cccc2cc([C@H](C)NC(=O)c3c(N)nn4cccnc34)n(-c3ccccc3)c(=O)c12 (some centres not stated) | 5 to 10 | 5 to 10 | 0.1 to 0.5 | 1 to 10 |
| C[C@H](NC(=O)c1c(N)nn2cccnc12)c1cc2cccc(C#Cc3ccc(=O)n(C)c3)c2c(=O)n1-c1ccccc1 | 5 to 10 | 1 to 5 | 0.001 to 0.1 | 0.1 to 0.5 |
| C[C@H](NC(=O)c1c(N)nn2cccnc12)c1cc2cccc(C#CC3CCOCC3)c2c(=O)n1-c1ccccc1 | 5 to 10 | 5 to 10 | 0.1 to 0.5 | 0.001 to 0.1 |
| C[C@H](NC(=O)c1c(N)nn2cccnc12)c1cc2cccc(C#CC(C)(C)O)c2c(=O)n1-c1ccccc1 | 5 to 10 | 5 to 10 | 0.1 to 0.5 | 1 to 10 |
| Cc1nn(C)c(C)c1C#Cc1cccc2cc([C@H](C)NC(=O)c3c(N)nn4cccnc34)n(-c3ccccc3)c(=O)c12 | 5 to 10 | 5 to 10 | 1 to 5 | 1 to 10 |
| C[C@H](NC(=O)c1c(N)nn2cccnc12)c1cc2cccc(CC(=O)c3cnn(C)c3)c2c(=O)n1-c1ccccc1 | 5 to 10 | 5 to 10 | 0.5 to 1 | 0.1 to 0.5 |
| Cc1ccncc1C#Cc1cccc2cc([C@H](C)NC(=O)c3c(N)nn4cccnc34)n(-c3ccccc3)c(=O)c12 | 5 to 10 | 5 to 10 | 0.5 to 1 | 1 to 10 |
| C[C@H](NC(=O)c1c(N)nn2cccnc12)c1cc2cccc(C#Cc3ccn[nH]3)c2c(=O)n1-c1ccccc1 | 5 to 10 | 5 to 10 | 0.1 to 0.5 | 0.1 to 0.5 |
| Cc1ccc(C#Cc2cccc3cc([C@H](C)NC(=O)c4c(N)nn5cccnc45)n(-c4ccccc4)c(=O)c23)cn1 | 5 to 10 | 5 to 10 | 0.001 to 0.1 | 0.5 to 1 |
| CC(C)C#Cc1cccc2nc([C@H](C)NC(=O)c3c(N)nn4cccnc34)n(-c3ccccc3)c(=O)c12 | 5 to 10 | 5 to 10 | 0.5 to 1 | 0.5 to 1 |
| Cc1cnc(C(=O)N[C@@H](C)c2cc3cccc(C#Cc4cnn(C)c4)c3c(=O)n2-c2ccccc2)c(N)n1 | 5 to 10 | 5 to 10 | 1 to 5 | 1 to 10 |
| C#Cc1cccc2nc([C@H](C)NC(=O)c3nccnc3N)n(-c3ccc(F)cc3)c(=O)c12 | 1 to 5 | 1 to 5 | 0.001 to 0.1 | 0.001 to 0.1 |
| Cc1nc(C#Cc2cccc3nc([C@H](C)NC(=O)c4c(N)nn5cccnc45)n(-c4ccccc4)c(=O)c23)cs1 | 5 to 10 | 5 to 10 | 0.001 to 0.1 | 0.5 to 1 |
| C[C@H](NC(=O)c1c(N)nn2cccnc12)c1cc2cccc(C#CC3CCN(S(C)(=O)=O)CC3)c2c(=O)n1-c1ccccc1 | 5 to 10 | 5 to 10 | 0.5 to 1 | 0.5 to 1 |
| C[C@H](NC(=O)c1c(N)nn2cccnc12)c1cc2cccc(C#CC3CCCC3)c2c(=O)n1-c1ccccc1 | 5 to 10 | 5 to 10 | 1 to 5 | 1 to 10 |
| Cc1csc(C#Cc2cccc3cc([C@H](C)NC(=O)c4c(N)nn5cccnc45)n(-c4ccccc4)c(=O)c23)n1 | 5 to 10 | 5 to 10 | 0.1 to 0.5 | 0.1 to 0.5 |
| C[C@H](NC(=O)c1c(N)nn2cccnc12)c1cc2ccc3ccccc3c2c(=O)n1-c1ccccc1 | 5 to 10 | 5 to 10 | 0.5 to 1 | 1 to 10 |
| C[C@H](NC(=O)c1c(N)nn2cccnc12)c1cc2cccc(C#Cc3ccnn3C)c2c(=O)n1-c1ccccc1 | 5 to 10 | 5 to 10 | 0.1 to 0.5 | 0.5 to 1 |
| C[C@H](NC(=O)c1c(N)nn2cccnc12)c1cc2cccc(C#CC3CCCCC3)c2c(=O)n1-c1ccccc1 | 5 to 10 | 5 to 10 | 1 to 5 | 1 to 10 |

| Compound | IC50 (PIK3CB (Human)) [µM] | IC50 (PIK3CD (Human) [1]) [µM] | IC50 (PIK3CG (human)) [µM] | IC50 (PIK3CD (Human) [2]) [µM] |
| --- | --- | --- | --- | --- |
| C[C@H](NC(=O)c1c(N)nn2cccnc12)c1cc2cccc(C#CC3CCOC3)c2c(=O)n1-c1ccccc1 (some centres not stated) | 5 to 10 | 5 to 10 | 0.001 to 0.1 | 0.1 to 0.5 |
| Cc1c(C#Cc2cccc3nc([C@H](C)NC(=O)c4c(N)nn5cccnc45)n(-c4ccccc4)c(=O)c23)cnn1C | 5 to 10 | 5 to 10 | 0.1 to 0.5 | 0.1 to 0.5 |
| C[C@H](NC(=O)c1c(N)nn2cccnc12)c1cc2cccc(C#Cc3nccs3)c2c(=O)n1-c1ccccc1 | 5 to 10 | 5 to 10 | 0.1 to 0.5 | 0.1 to 0.5 |
| COc1cc(C#Cc2cccc3cc([C@H](C)NC(=O)c4c(N)nn5cccnc45)n(-c4ccccc4)c(=O)c23)ccn1 | 5 to 10 | 5 to 10 | 1 to 5 | 0.1 to 0.5 |
| C[C@H](NC(=O)c1c(N)nn2cccnc12)c1cc2cccc(C#Cc3cc[nH]c(=O)c3)c2c(=O)n1-c1ccccc1 | 5 to 10 | 5 to 10 | 0.1 to 0.5 | 0.1 to 0.5 |
| C[C@H](NC(=O)c1c(N)nn2cccnc12)c1cc2cccc(C#Cc3cn[nH]c3)c2c(=O)n1-c1ccccc1 | 1 to 5 | 5 to 10 | 0.001 to 0.1 | 0.1 to 0.5 |
| C[C@H](NC(=O)c1c(N)nn2cccnc12)c1cc2cccc(C#CC(C)(C)C)c2c(=O)n1-c1ccccc1 | 5 to 10 | 5 to 10 | 1 to 5 | 1 to 10 |
| C#Cc1cccc2nc([C@H](C)NC(=O)c3c(N)nn4cccnc34)n(-c3ccc(F)c(F)c3)c(=O)c12 | 5 to 10 | 5 to 10 | 0.1 to 0.5 | 0.1 to 0.5 |
| CCOC(C#Cc1cccc2cc([C@H](C)NC(=O)c3c(N)nn4cccnc34)n(-c3ccccc3)c(=O)c12)OCC | 5 to 10 | 5 to 10 | 0.5 to 1 | 0.5 to 1 |
| Cc1ncccc1C#Cc1cccc2cc([C@H](C)NC(=O)c3c(N)nn4cccnc34)n(-c3ccccc3)c(=O)c12 | 5 to 10 | 5 to 10 | 1 to 5 | 1 to 10 |
| C[C@H](NC(=O)c1c(N)nn2cccnc12)c1cc2cccc(C#C[C@@H](C)O)c2c(=O)n1-c1ccccc1 | 5 to 10 | 0.5 to 1 | 0.001 to 0.1 | 0.1 to 0.5 |
| C[C@H](NC(=O)c1c(N)nn2cccnc12)c1cc2cccc(CC(=O)c3cn[nH]c3)c2c(=O)n1-c1ccccc1 | 5 to 10 | 1 to 5 | 0.5 to 1 | 0.1 to 0.5 |
| C[C@H](NC(=O)c1c(N)nn2cccnc12)c1cc2cccc(C#Cc3ccncc3)c2c(=O)n1-c1ccccc1 | 5 to 10 | 5 to 10 | 0.1 to 0.5 | 0.1 to 0.5 |
| C[C@H](NC(=O)c1c(N)nn2cccnc12)c1cc2cccc(C#CC=O)c2c(=O)n1-c1ccccc1 | 0.001 to 0.5 | 1 to 5 | 0.001 to 0.1 | 0.1 to 0.5 |
| C[C@H](NC(=O)c1c(N)nn2cccnc12)c1cc2cccc(C#CCN(C)C)c2c(=O)n1-c1ccccc1 | 5 to 10 | 5 to 10 | 0.5 to 1 | 0.1 to 0.5 |
| C[C@H](NC(=O)c1cnn2cccnc12)c1cc2cccc(C#Cc3cnn(C)c3)c2c(=O)n1-c1ccccc1 | 5 to 10 | 5 to 10 | 0.1 to 0.5 | 1 to 10 |
| C/C=C/c1cccc2cc([C@H](C)NC(=O)c3c(N)nn4cccnc34)n(-c3ccccc3)c(=O)c12 | 5 to 10 | 5 to 10 | 0.1 to 0.5 | 0.001 to 0.1 |
| Cc1nc(C#Cc2cccc3cc([C@H](C)NC(=O)c4c(N)nn5cccnc45)n(-c4ccccc4)c(=O)c23)cs1 | 5 to 10 | 5 to 10 | 0.001 to 0.1 | 0.1 to 0.5 |
| C[C@H](NC(=O)c1c(N)nn2cccnc12)c1cc2cccc(C#CC(C)(C)N)c2c(=O)n1-c1ccccc1 | 5 to 10 | 5 to 10 | 0.5 to 1 | 1 to 10 |
| Cc1scnc1C#Cc1cccc2cc([C@H](C)NC(=O)c3c(N)nn4cccnc34)n(-c3ccccc3)c(=O)c12 | 5 to 10 | 5 to 10 | 0.1 to 0.5 | 0.1 to 0.5 |
| C[C@H](NC(=O)c1c(N)nn2cccnc12)c1cc2cccc(C#CC3CC3)c2c(=O)n1-c1ccccc1 | 1 to 5 | 1 to 5 | 0.1 to 0.5 | 0.1 to 0.5 |
